From patent US7186735B2, “Acylated arylcycloalkylamines and their use as pharmaceuticals” (Sanofi-Aventis Deutschland GmbH, priority 2002, dated 2007)

target: eNOS promoter; assay: Activation of eNOS transcription (eNOS promoter-luciferase reporter gene assay); type: cell-based; conditions: human endothelial cell line stably transfected with eNOS promoter-luciferase construct; 18 h incubation; EC50 determined graphically from TIR vs concentration; read-out: eNOS transcription induction ratios EC50
Protocol: Determination of Activation of eNOS Transcription
Activation of eNOS transcription was determined as described in detail in Li et al., “Activation of protein kinase C alpha and/or epsilon enhances transcription of the human endothelial nitric oxide synthase gene”, Mol. Pharmacol. 53 (1998) 630, the content of which is incorporated herein by reference.
Briefly, a 3.5 kB long fragment 5′ of the starting codon of the eNOS gene was cloned, sequenced and cloned in firefly luciferase expression plasmids to monitor activation of the eNOS promoter by reporter gene activity. A human endothelial cell line stable transfected and expressing this promoter-reporter construct was used for compound testing. Cells were incubated for 18 h with compounds.
All compounds were dissolved in sterile dimethyl sulfoxide (DMSO). A final concentration of 0.5% DMSO in complete medium was allowed. Induction of reporter gene expression in these cells was measured using a standard luciferase assay system (Promega, Cat. No E150) according to the manufacturer's instructions. Luciferase induction in cells incubated with compounds were compared to those incubated with solvent alone. The ratio of both activities (transcription induction ratio, TIR) was plotted as a function of compound concentration. Typically, TIR values started at low concentrations at a ratio of 1, indicating no compound effect, and extended up to a maximum TIR value TIR(max) which indicates the increase of the eNOS transcription. EC50 values of transcription induction ratios as a function of compound concentration were determined graphically.

Structure (SMILES) | EC50 [nM]
Cc1nc(C)c(C(=O)N[C@@H]2C[C@H]2c2ccccc2)o1 (racemic) [Example 1] | 18000
Cc1ccc(C(=O)N[C@@H]2C[C@H]2c2ccccc2)c(C)n1 (racemic) [Example 4] | 330
Cc1ccc(C(=O)N[C@@H]2C[C@H]2c2ccccc2)cc1NS(C)(=O)=O (racemic) [Example 7] | 1800
CS(=O)(=O)Nc1cccc(C(=O)N[C@@H]2C[C@H]2c2ccccc2)c1 (racemic) [Example 8] | 2000
O=C(N[C@@H]1C[C@H]1c1ccccc1)c1ccc(N2CCOCC2)nc1 (racemic) [Example 9] | 3500
O=C(N[C@@H]1C[C@H]1c1ccccc1)c1cnc2c(c1)CCCC2 (racemic) [Example 10] | 5100
COc1ccc(C(=O)N[C@@H]2C[C@H]2c2ccccc2)cn1 (racemic) [Example 11] | 780
Cc1ncc(C(=O)N[C@@H]2C[C@H]2c2ccccc2)s1 (racemic) [Example 12] | 10000
O=C(N[C@@H]1C[C@H]1c1ccccc1)c1cccc(N2CCCC2)c1 (racemic) [Example 13] | 1300
O=C(N[C@@H]1C[C@H]1c1ccccc1)c1cccc(N2CCCCC2)c1 (racemic) [Example 14] | 11000
CN1CCN(c2cccc(C(=O)N[C@@H]3C[C@H]3c3ccccc3)c2)CC1 (racemic) [Example 15] | 59000
O=C(N[C@@H]1C[C@H]1c1ccccc1)c1cccc(N2CCOCC2)c1 (racemic) [Example 16] | 32000
CC(C)S(=O)(=O)c1csc(C(=O)N[C@@H]2C[C@H]2c2ccccc2)c1Cl (racemic) [Example 19] | 450
Cc1cc(C(=O)N[C@@H]2C[C@H]2c2ccccc2)c(C)n1Cc1ccncc1 (racemic) [Example 22] | 24000
Cc1nc(C)c(C(=O)N[C@@H]2C[C@H]2c2ccccc2)s1 (racemic) [Example 23] | 600
Nc1ncccc1C(=O)N[C@@H]1C[C@H]1c1ccccc1 (racemic) [Example 24] | 950
Cc1ccc(C(=O)N[C@@H]2C[C@H]2c2ccccc2)cn1 (racemic) [Example 25] | 1100
COCc1ccc(C(=O)N[C@@H]2C[C@H]2c2ccccc2)cn1 (racemic) [Example 27] | 4300
O=C(NC1CC1c1ccccc1)c1cccc2[nH]ccc12 (racemic) [Example 31] | 470
CN(C)c1cccc(C(=O)NC2CC2c2ccccc2)c1 (racemic) [Example 32] | 1800
Cc1cc(C)c(C(=O)NC2CC2c2ccccc2)c(N)n1 (racemic) [Example 33] | 12000
O=C(NC1CC1c1ccccc1)c1cccc(Cl)c1Cl (racemic) [Example 34] | 1200
O=C(N[C@@H]1C[C@H]1c1ccccc1)c1ccc(F)cc1 (relative stereo) [Example 40, 4-Fluoro-N-(trans-2-phenylcyclopropyl)benzamide] | 1500

More lines, now with the values ahead:

EC50 [nM] | Structure (SMILES)
300 | Cc1nc(C2CC2)sc1C(=O)N[C@@H]1C[C@H]1c1ccccc1 (racemic) [Example 3]
160 | Cc1nc(N)c(C(=O)N[C@@H]2C[C@H]2c2ccccc2)nc1C (racemic) [Example 5]
< 10 | Cc1cc(C(=O)N[C@@H]2C[C@H]2c2ccccc2)c(C)n1Cc1cccs1 (racemic) [Example 17]
330 | Cc1nc2ccc(C(=O)N[C@@H]3C[C@H]3c3ccccc3)cc2[nH]1 (racemic) [Example 18]
110 | Cc1c(C(=O)N[C@@H]2C[C@H]2c2ccccc2)cnn1-c1ccccc1 (racemic) [Example 20]
240 | O=C(N[C@@H]1C[C@H]1c1ccccc1)c1cnn(-c2ccccc2)c1C(F)(F)F (racemic) [Example 21]
290 | Cc1ccc(C(=O)N[C@@H]2C[C@H]2c2ccccc2)c(Cl)n1 (racemic) [Example 26]
430 | Nc1nccnc1C(=O)N[C@@H]1C[C@H]1c1ccccc1 (racemic) [Example 28]
100 | O=C(N[C@@H]1C[C@H]1c1ccccc1)c1ccc2cc[nH]c2c1 (racemic) [Example 29]
100 | O=C(N[C@@H]1C[C@H]1c1ccccc1)c1ccc2[nH]ccc2c1 (racemic) [Example 30]
310 | O=C(NC1CC1c1ccccc1)c1ccc(F)cc1F (racemic) [Example 36]
260 | Cc1ccc(C(=O)NC2CC2c2ccccc2)s1 (racemic) [Example 37]
230 | O=C(NC1CC1c1ccccc1)c1ccc(Cl)s1 (racemic) [Example 38]
190 | O=C(N[C@@H]1C[C@H]1c1ccccc1)c1ccc(F)cc1 (relative stereo) [Example 39, 4-fluoro-N-(trans-2-phenylcyclopropyl)benzamide]
180 | O=C(N[C@@H]1C[C@H]1c1ccccc1)c1ccc(F)cc1 (relative stereo) [Example 41, 4-Fluoro-N-(trans-2-phenylcyclopropyl)benzamide]
